What was measured:
Format in all cases: cell-based
E. coli MG1655 = assay: MIC assay, 96 well broth dilution with MTT staining; parameters: unit not given beside the values; settings: LB, 35-37° C., 20 h
Experimental: (§1) A 96 well plate with 100 μL test medium in all wells was prepared by handheld multipipettor. A stock solution of the antibiotic or compound in DMSO (0.05˜10 mg/mL, 5 μL) and the same medium (95 μL) were put together into column one, where the compound concentration doubled the highest one to be tested. Two columns were necessary for each compound to check the reproducibility. The compound was diluted by adding 100 μL from column one to column two with a 50% volume mix done three times; diluting serially across the plate was continued.
(§2) The day before the assay was scheduled to be run, strains were suspended in the test media (Brain Heart Infusion (BHI) containing 0.1% casamino acids for S. aureus, S. epidermidis, and E. faecalis, Trypticase Soy Broth (TSB) containing 5% sheep blood for S. pneumoniae, and Lysogeny Broth (LB) for E. coli) and incubated overnight at 35-37° C. The suspension was diluted with the same media to 1%, 100 μL of which was added to each well of the MIC plate. The MIC plate was incubated at 35-37° C. for 20 h. A thiazolyl blue tetrazolium bromide (MTT) solution (1 mg/mL-water, 50 μL) was added into each well and the resulting MIC plate was incubated at 35-37° C. for a few hours to stain wells in which cell proliferated. Growth is also visible as any turbidity in wells.

S. aureus 13709 = assay: as above; parameters: unit not given beside the values; settings: BHI containing 0.1% casamino acids, 35-37° C., 20 h
Experimental: as §1, §2

S. aureus 25923 = assay: as above; parameters: unit not given beside the values; settings: S. aureus 25923 (second strain line); BHI containing 0.1% casamino acids; 35-37° C., 20 h
Experimental: as §1, §2

S. pneumoniae #1629 = assay: as above; settings: TSB containing 5% sheep blood, 35-37° C., 20 h
Experimental: as §1, §2

S. pneumoniae 6303 = assay: as above; settings: TSB containing 5% sheep blood, 35-37° C., 20 h
Experimental: as §1, §2

E. coli NR698 = tested on: E. coli NR698; parameters: unit not given beside the values; settings: LB, 35-37° C., 20 h
Experimental: as §1, §2

E. faecalis 29212 = assay: MIC assay, 96 well broth dilution with MTT staining; parameters: unit not given beside the values; settings: BHI containing 0.1% casamino acids, 35-37° C., 20 h
Experimental: as §1, §2

E. faecalis 33186 = assay: as above; parameters: unit not given beside the values; settings: BHI containing 0.1% casamino acids, 35-37° C., 20 h
Experimental: as §1, §2

S. epidermidis 1228 = assay: as above; parameters: unit not given beside the values; settings: BHI containing 0.1% casamino acids, 35-37° C., 20 h
Experimental: as §1, §2

S. epidermidis 700562 = assay: as above; parameters: unit not given beside the values; settings: BHI containing 0.1% casamino acids, 35-37° C., 20 h
Experimental: as §1, §2

[1] = S. aureus 13709 (first strain line)
[2] = S. aureus 13709 (third strain line)

| SMILES | MIC (E. coli MG1655) | MIC (S. aureus 13709; [1]) | MIC (S. aureus 13709; [2]) | MIC (S. aureus 25923) | MIC (S. pneumoniae #1629) | MIC (S. pneumoniae 6303) | MIC (E. coli NR698) | MIC (E. faecalis 29212) | MIC (E. faecalis 33186) | MIC (S. epidermidis 1228) | MIC (S. epidermidis 700562) |
| --- | --- | --- | --- | --- | --- | --- | --- | --- | --- | --- | --- |
| CC(=O)NC1C(OC2C(COC3OC(CO)C(O)C(O)C3O)OC(OC3C(OP(=O)(O)OCC(OCC=C(C)CCC=C(C)CCC=C(C)CCC=C(C)C)C(=O)O)OC(C(N)=O)C(C)(O)C3OC(N)=O)C(NC(C)=O)C2O)OC(C)C(OC2OC(C(=O)NC3=C(O)CCC3=O)C(O)C(O)C2O)C1O.N [1b, N1-[(2-Hydroxy-5-oxo-cyclopenten-1-yl)-(5S)-β-D-galactopyranuronamide]-(1→4)-2-acetamide-2,6-dideoxy-β-D-gluopyranosyl-(1→4)-[β-D-glucopyranosyl-(1→6)]-2-acetamido-2-deoxy-β-D-glucopyranosyl)-(1→2)-3-O-carbamoyl-1-O—{[(R)-2-carboxy-2-((2Z,6E,10E)-3,7,11,15-tetramethyl-hexadeca-2,6,10,14-tetraen-1-yloxy)ethoxy]hydroxyphosphoryl}-4-C-methyl-α-D-glucopyranuronamide] | 63 | 3.9 | 2.0 | 3.9 | 3.9 | 2.0 | 0.061 | – | – | – | – |
| CC(=O)NC1C(OC2C(COC3OC(CO)C(O)C(O)C3O)OC(OC3C(OP(=O)(O)OCC(OCC=C(C)CCC=C(C)CCC=C(C)C)C(=O)O)OC(C(N)=O)C(C)(O)C3OC(N)=O)C(NC(C)=O)C2O)OC(C)C(OC2OC(C(=O)NC3=C(O)CCC3=O)C(O)C(O)C2O)C1O.N [1c, N1-[(2-Hydroxy-5-oxo-cyclopenten-1-yl)-(5S)-β-D-galactopyranuronamide]-(1→4)-2-acetamide-2,6-dideoxy-β-D-gluopyranosyl-(1→4)-[β-D-glucopyranosyl-(1→6)]-2-acetamido-2-deoxy-β-D-glucopyranosyl)-(1→2)-3-O-carbamoyl-1-O—{[(R)-2-carboxy-2-((2Z,6E)-3,7,11-trimethyl-dodeca-2,6,10-trien-1-yloxy)ethoxy]hydroxyphosphoryl}-4-C-methyl-α-D-glucopyranuronamide] | > 250 | >250 >250 250 | >250 >250 250 | >250 >250 250 | 31 | 63 | 0.98 | 250 >250 | 250 >250 | >250 >250 | >250 >250 |
| CCCCCCCCCCCCCCCCCCOC(COP(=O)(O)OC1OC(C(N)=O)C(C)(O)C(OC(N)=O)C1OC1OC(COC2OC(CO)C(O)C(O)C2O)C(OC2OC(C)C(OC3OC(C(=O)NC4=C(O)CCC4=O)C(O)C(O)C3O)C(O)C2NC(C)=O)C(O)C1NC(C)=O)C(=O)O.N [1e, N1-[(2-Hydroxy-5-oxo-cyclopenten-1-yl)-(5S)-β-D-galactopyranuronamide]-(1→4)-2-acetamide-2,6-dideoxy-β-D-gluopyranosyl-(1→4)-[β-D-glucopyranosyl-(1→6)]-2-acetamido-2-deoxy-β-D-glucopyranosyl)-(1→2)-3-O-carbamoyl-1-O—{[(R)-2-carboxy-2-(octadecan-1-yloxy)ethoxy]hydroxyphosphoryl}-4-C-methyl-α-D-glucopyranuronamide] | 63 | 2.0 | 0.98 | 0.98 | – | – | 0.0024 | 0.49 | 0.98 | – | – |
| CC(=O)NC1C(OC2C(COC3OC(CO)C(O)C(O)C3O)OC(OC3C(OP(=O)(O)OCC(OCc4cccc(OCc5cccc(-c6cccc(OCc7ccccc7)c6)c5)c4)C(=O)O)OC(C(N)=O)C(C)(O)C3OC(N)=O)C(NC(C)=O)C2O)OC(C)C(OC2OC(C(=O)NC3=C(O)CCC3=O)C(O)C(O)C2O)C1O.N [1i, N1-[(2-Hydroxy-5-oxo-cyclopenten-1-yl)-(5S)-β-D-galactopyranuronamide]-(1→4)-2-acetamide-2,6-dideoxy-β-D-gluopyranosyl-(1→4)-[β-D-glucopyranosyl-(1→6)]-2-acetamido-2-deoxy-β-D-glucopyranosyl)-(1→2)-3-O-carbamoyl-1-O—{[(R)-2-carboxy-2-(3-((3′-(benzyloxy)-[1,1′-biphenyl]-3-yl)methoxy)phenylmethan-1-yloxy)ethoxy]hydroxyphosphoryl}-4-C-methyl-α-D-glucopyranuronamide] | > 250 | 7.8 | 7.8 | 7.8 | 7.8 | 3.9 | 0.49 | 16 | 32 | 3.9 | 7.8 |
| CC(=O)NC1C(OC2C(COC3OC(CO)C(O)C(O)C3O)OC(OC3C(OP(=O)(O)OCC(OCc4cccc(OCc5cccc(-c6cccc(C)c6)c5)c4)C(=O)O)OC(C(N)=O)C(C)(O)C3OC(N)=O)C(NC(C)=O)C2O)OC(C)C(OC2OC(C(=O)NC3=C(O)CCC3=O)C(O)C(O)C2O)C1O.N [1j, N1-[(2-Hydroxy-5-oxo-cyclopenten-1-yl)-(5S)-β-D-galactopyranuronamide]-(1→4)-2-acetamide-2,6-dideoxy-β-D-gluopyranosyl-(1→4)-[β-D-glucopyranosyl-(1→6)]-2-acetamido-2-deoxy-β-D-glucopyranosyl)-(1→2)-3-O-carbamoyl-1-O—{[(R)-2-carboxy-2-(3-((3′-methyl-[1,1′-biphenyl]-3-yl)methoxy)phenylmethan-1-yloxy)ethoxy]hydroxyphosphoryl}-4-C-methyl-α-D-glucopyranuronamide] | > 250 | >250 >250 >250 | >250 >250 >250 | >250 >250 >250 | 16 | 16 | 0.98 | >250 >250 | >250 >250 | 125 | > 250 |
| CCCCCCCCCCCCCCCCCCCCOC(COP(=O)(O)OC1OC(C(N)=O)C(C)(O)C(OC(N)=O)C1OC1OC(COC2OC(CO)C(O)C(O)C2O)C(OC2OC(C)C(OC3OC(C(=O)NC4=C(O)CCC4=O)C(O)C(O)C3O)C(O)C2NC(C)=O)C(O)C1NC(C)=O)C(=O)O.N [1d, N1-[(2-Hydroxy-5-oxo-cyclopenten-1-yl)-(5S)-β-D-galactopyranuronamide]-(1→4)-2-acetamide-2,6-dideoxy-β-D-gluopyranosyl-(1→4)-[β-D-glucopyranosyl-(1→6)]-2-acetamido-2-deoxy-β-D-glucopyranosyl)-(1→2)-3-O-carbamoyl-1-O—{[(R)-2-carboxy-2-(eicosan-1-yloxy)ethoxy]hydroxyphosphoryl}-4-C-methyl-α-D-glucopyranuronamide] | 7.8 | 1.3 | 0.63 | 0.63 | 3.1 | 2.0 | 0.0049 | – | – | 0.63 | 1.3 |
| CC(=O)NC1C(OC2C(COC3OC(CO)C(O)C(O)C3O)OC(OC3C(OP(=O)(O)OCC(OCc4cccc(OCc5cccc(-c6cccc(OCc7cccc(-c8ccccc8)c7)c6)c5)c4)C(=O)O)OC(C(N)=O)C(C)(O)C3OC(N)=O)C(NC(C)=O)C2O)OC(C)C(OC2OC(C(=O)NC3=C(O)CCC3=O)C(O)C(O)C2O)C1O.N [1h, N1-[(2-Hydroxy-5-oxo-cyclopenten-1-yl)-(5S)-β-D-galactopyranuronamide]-(1→4)-2-acetamide-2,6-dideoxy-β-D-gluopyranosyl-(1→4)-[β-D-glucopyranosyl-(1→6)]-2-acetamido-2-deoxy-β-D-glucopyranosyl)-(1→2)-3-O-carbamoyl-1-O—{[(R)-2-carboxy-2-(3-((3′-([1,1′-biphenyl]-3-ylmethoxy)-[1,1′-biphenyl]-3-yl)methoxy)phenylmethan-1-yloxy)ethoxy]hydroxyphosphoryl}-4-C-methyl-α-D-glucopyranuronamide] | 125 | 0.39 | 0.20 | 0.20 | 2.0 | 0.98 | 0.039 | 0.39 | 0.78 | – | – |

— patent US9273084B2, “Moenomycin analogs, methods of synthesis, and uses thereof” (priority 2012, dated 2016)
